Results as given in US11325899B2, “Benzofurane and benzothiophene derivatives as PGE2 receptor modulators” (IDORSIA PHARMACEUTICALS LTD, priority 2017, dated 2022).

Columns and labels:
Type in all cases: cell-based
[1] = target: T1, EP4 receptor (Homo sapiens, UniProt P35408); assay: hEP4 cAMP assay (BT549 breast cancer cells, HTRF cAMP, PGE2 stimulation); settings: antagonistic activity, PGE2 6 nM (EC80)
T1 construct: BT549 breast cancer cells, express high endogenous EP4 levels and very low EP2 levels; host or cells: BT549 breast cancer cells
T1 sequence (P35408 whole entry): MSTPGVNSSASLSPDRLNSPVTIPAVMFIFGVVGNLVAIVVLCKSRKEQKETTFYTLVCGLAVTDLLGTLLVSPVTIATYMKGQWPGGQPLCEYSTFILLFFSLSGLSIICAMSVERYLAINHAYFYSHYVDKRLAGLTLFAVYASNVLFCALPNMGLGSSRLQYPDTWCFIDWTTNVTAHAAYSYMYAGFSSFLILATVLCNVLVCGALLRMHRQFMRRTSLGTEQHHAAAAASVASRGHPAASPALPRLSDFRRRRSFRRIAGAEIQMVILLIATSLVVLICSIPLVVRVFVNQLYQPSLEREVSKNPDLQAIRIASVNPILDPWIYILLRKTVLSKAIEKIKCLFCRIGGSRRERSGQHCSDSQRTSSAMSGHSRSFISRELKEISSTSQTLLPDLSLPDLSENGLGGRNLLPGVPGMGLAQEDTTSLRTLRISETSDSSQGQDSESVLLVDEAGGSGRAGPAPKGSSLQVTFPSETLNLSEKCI
Method in brief: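 BT549 cells, with endogenous EP4 and very low EP2, were preincubated 45 min at room temperature with compound in HBSS/HEPES/BSA buffer with 2 mM IBMX. They were then stimulated 30 min with 6 nM PGE2 (EC80). cAMP was measured by HTRF competitive immunoassay against a calibrator; IC50 from duplicate dose-response as % of DMSO control.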

[2] = target: T2, PTGER4 (EP4) (Homo sapiens, UniProt P35408); assay: hEP4 b-arrestin assay (PathHunter HEK 293 PTGER4 b-arrestin cells); settings: antagonistic activity, beta-arrestin assay; read-out: hEP4 b-arr IC50
T2 construct: host or cells: HEK 293 (PathHunter PTGER4 b-arrestin cell line)
T2 sequence (P35408 whole entry): as above
Method in brief: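 PathHunter HEK 293 cells expressing ProLink-tagged human EP4 and EA-β-arrestin 2, seeded 24 h before. Compounds (10 μM–2 nM or 1 μM–0.2 nM) preincubated 15 min at 37 °C, then 20 nM PGE2 (EC80) for 120 min at 37 °C. β-gal complementation luminescence read; IC50 from duplicate dose-response curves versus DMSO control.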

[3] = target: T3, PTGER2 (EP2) (Homo sapiens, UniProt P43116); assay: hEP2 b-arrestin assay (PathHunter HEK 293 PTGER2 b-arrestin cells); settings: antagonistic activity, beta-arrestin assay; read-out: hEP2 b-arr IC50
T3 construct: host or cells: HEK 293 (PathHunter PTGER2 b-arrestin cell line)
T3 sequence (P43116 whole entry): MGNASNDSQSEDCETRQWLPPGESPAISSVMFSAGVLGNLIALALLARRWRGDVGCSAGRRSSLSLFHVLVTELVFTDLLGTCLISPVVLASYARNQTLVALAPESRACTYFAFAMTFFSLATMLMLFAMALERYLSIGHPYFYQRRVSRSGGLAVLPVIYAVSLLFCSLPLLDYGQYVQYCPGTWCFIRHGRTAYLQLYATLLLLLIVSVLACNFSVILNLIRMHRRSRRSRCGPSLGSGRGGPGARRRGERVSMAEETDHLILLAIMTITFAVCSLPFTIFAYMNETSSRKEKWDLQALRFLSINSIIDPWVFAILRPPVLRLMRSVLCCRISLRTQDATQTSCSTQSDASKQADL
Method in brief: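 PathHunter HEK293 cells with ProLink-tagged EP2 and EA-β-arrestin 2 preincubated 15 min at 37 °C with compound (10 μM-2 nM or 1 μM-0.2 nM), then stimulated 120 min with 5 μM PGE2 (EC80). β-gal complementation read by chemiluminescence; IC50 from duplicate dose-response versus DMSO.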

| Structure (SMILES) | IC50 [1] | IC50 [2] | IC50 [3] |
| --- | --- | --- | --- |
| Cc1sc2c(C)cccc2c1CCNc1cc(-c2ccc3cc(C(=O)O)oc3c2)ncn1 [Example 77, 6-{6-[2-(2,7-Dimethyl-benzo[b]thiophen-3-yl)-ethylamino]-pyrimidin-4-yl}-benzofuran-2-carboxylic acid] | 0.13 µM | 1.31 µM | 0.006 µM |
| CCOc1cc(-c2cc(NCCc3c(C)sc4c(C)cc(F)cc34)ncn2)sc1C(=O)O [Example 32, 3-Ethoxy-5-{6-[2-(5-fluoro-2,7-dimethyl-benzo[b]thiophen-3-yl)-ethylamino]-pyrimidin-4-yl}-thiophene-2-carboxylic acid] | 0.013 µM | 0.016 µM | 0.002 µM |
| CCOc1cc(-c2cc(NCCc3c(C)sc4c(C)ccc(F)c34)ncn2)sc1C(=O)O [Example 25, 3-Ethoxy-5-{6-[2-(4-fluoro-2,7-dimethyl-benzo[b]thiophen-3-yl)-ethylamino]-pyrimidin-4-yl}-thiophene-2-carboxylic acid] | 0.001 µM | 0.007 µM | 0.002 µM |
| CCc1oc2c(C)cc(F)cc2c1CCNc1cc(-c2ccc(C(=O)O)c(SC)c2)ncn1 [Example 22, 4-{6-[2-(2-Ethyl-5-fluoro-7-methyl-benzofuran-3-yl)-ethylamino]-pyrimidin-4-yl}-2-methylsulfanyl-benzoic acid] | 0.661 µM | 0.493 µM | 0.101 µM |
| CCSc1cc(-c2cc(NCCc3c(C)sc4ccccc34)ncn2)ccc1C(=O)O [Example 43, 2-Ethylsulfanyl-4-{6-[2-(2-methyl-benzo[b]thiophen-3-yl)-ethylamino]-pyrimidin-4-yl}-benzoic acid] | 0.497 µM | 1.08 µM | 0.003 µM |
| CSc1cc(-c2cc(NCCc3c(C)sc4c(C)cccc34)ncn2)cc(Cl)c1C(=O)O [Example 50, 2-Chloro-4-{6-[2-(2,7-dimethyl-benzo[b]thiophen-3-yl)-ethylamino]-pyrimidin-4-yl}-6-methylsulfanyl-benzoic acid] | 0.605 µM | 0.432 µM | 0.018 µM |
| Cc1sc2c(C)cccc2c1CCNc1cc(-c2ccc(C(=O)O)c(SC(C)C)c2)ncn1 [Example 90, 4-{6-[2-(2,7-Dimethyl-benzo[b]thiophen-3-yl)-ethylamino]-pyrimidin-4-yl}-2-isopropylsulfanyl-benzoic acid] | 0.338 µM | 0.247 µM | 0.011 µM |
| CSc1cc(-c2cc(NCCc3c(C)oc4c(C)cc(F)cc34)ncn2)ccc1C(=O)O [Example 16, 4-{6-[2-(5-Fluoro-2,7-dimethyl-benzofuran-3-yl)-ethylamino]-pyrimidin-4-yl}-2-methylsulfanyl-benzoic acid] | 0.189 µM | 0.391 µM | 0.013 µM |
| CCOc1cc(-c2cc(NCCc3c(C)oc4c(OC)ccc(F)c34)ncn2)ccc1C(=O)O [Example 67, 2-Ethoxy-4-{6-[2-(4-fluoro-7-methoxy-2-methyl-benzofuran-3-yl)-ethylamino]-pyrimidin-4-yl}-benzoic acid] | 0.635 µM | 0.369 µM | 0.073 µM |

Second part, the molecule after the results:

| IC50 [1] | IC50 [2] | IC50 [3] | Structure (SMILES) |
| --- | --- | --- | --- |
| 0.989 µM | 0.807 µM | 0.01 µM | CSc1cc(-c2cc(NCCc3c(C)sc4c(C)cccc34)ncn2)cc(F)c1C(=O)O [Example 47, 4-{6-[2-(2,7-Dimethyl-benzo[b]thiophen-3-yl)-ethylamino]-pyrimidin-4-yl}-2-fluoro-6-methylsulfanyl-benzoic acid] |
| 0.672 µM | 0.816 µM | 0.006 µM | Cc1oc2ccccc2c1CCNc1cc(-c2ccc(C(=O)O)c(SC(C)C)c2)ncn1 [Example 92, 2-Isopropylsulfanyl-4-{6-[2-(2-methyl-benzofuran-3-yl)-ethylamino]-pyrimidin-4-yl}-benzoic acid] |
| 0.036 µM | 0.035 µM | 0.003 µM | CCOc1cc(-c2cc(NCCc3c(C)oc4c(Cl)cccc34)ncn2)sc1C(=O)O [Example 35, 5-{6-[2-(7-Chloro-2-methyl-benzofuran-3-yl)-ethylamino]-pyrimidin-4-yl}-3-ethoxy-thiophene-2-carboxylic acid] |
| 0.76 µM | 0.668 µM | 0.024 µM | CCOc1cc(-c2cc(NCCc3c(C)oc4c(C)cc(F)cc34)ncn2)ccc1C(=O)O [Example 69, 2-Ethoxy-4-{6-[2-(5-fluoro-2,7-dimethyl-benzofuran-3-yl)-ethylamino]-pyrimidin-4-yl}-benzoic acid] |
| 0.394 µM | 0.262 µM | 0.011 µM | Cc1cc(-c2cc(NCCc3c(C)oc4c(C)cc(Cl)cc34)ncn2)sc1C(=O)O [Example 4, 5-{6-[2-(5-Chloro-2,7-dimethyl-benzofuran-3-yl)-ethylamino]-pyrimidin-4-yl}-3-methyl-thiophene-2-carboxylic acid] |
| 0.044 µM | 0.026 µM | 0.001 µM | CCOc1cc(-c2cc(NCCc3c(C)sc4c(C)cccc34)ncn2)sc1C(=O)O [Example 36, 5-{6-[2-(2,7-Dimethyl-benzo[b]thiophen-3-yl)-ethylamino]-pyrimidin-4-yl}-3-ethoxy-thiophene-2-carboxylic acid] |
| 0.231 µM | 0.133 µM | 0.046 µM | CCOc1cc(-c2cc(NCCc3c(C)sc4c(C)cc(F)cc34)ncn2)sc1CC(=O)O [Example 52, (3-Ethoxy-5-{6-[2-(5-fluoro-2,7-dimethyl-benzo[b]thiophen-3-yl)-ethylamino]-pyrimidin-4-yl}-thiophen-2-yl)-acetic acid] |
| 0.565 µM | 0.428 µM | 0.016 µM | CCOc1cc(-c2cc(NCCc3c(C)sc4c(Cl)cc(F)cc34)ncn2)ccc1C(=O)O [Example 65, 4-{6-[2-(7-Chloro-5-fluoro-2-methyl-benzo[b]thiophen-3-yl)-ethylamino]-pyrimidin-4-yl}-2-ethoxy-benzoic acid] |
| 1.03 µM | 0.958 µM | 0.007 µM | CCOc1cc(-c2cc(NCCc3c(C)oc4c(Cl)cc(Cl)cc34)ncn2)ccc1C(=O)O [Example 71, 4-{6-[2-(5,7-Dichloro-2-methyl-benzofuran-3-yl)-ethylamino]-pyrimidin-4-yl}-2-ethoxy-benzoic acid] |
| 0.138 µM | 0.155 µM | 0.013 µM | Cc1sc2c(C)cc(F)cc2c1CCNc1cc(-c2cc3c(C(=O)O)cccc3[nH]2)ncn1 [Example 82, 2-{6-[2-(5-Fluoro-2,7-dimethyl-benzo[b]thiophen-3-yl)-ethylamino]-pyrimidin-4-yl}-1H-indole-4-carboxylic acid] |
| 0.539 µM | 0.843 µM | 0.02 µM | Cc1sc2ccccc2c1CCNc1cc(-c2ccc(C(=O)O)c(SC(C)C)c2)ncn1 [Example 91, 2-Isopropylsulfanyl-4-{6-[2-(2-methyl-benzo[b]thiophen-3-yl)-ethylamino]-pyrimidin-4-yl}-benzoic acid] |
| 0.03 µM | 0.093 µM | 0.046 µM | Cc1sc2c(C)cc(F)cc2c1CCNc1cc(-c2cc(C(F)(F)F)c(C(=O)O)s2)ncn1 [Example 46, 5-{6-[2-(5-Fluoro-2,7-dimethyl-benzo[b]thiophen-3-yl)-ethylamino]-pyrimidin-4-yl}-3-trifluoromethyl-thiophene-2-carboxylic acid] |
